The values below come from PubChem BioAssay (NCI).

Values joined by “and” are separate entries in the source; they are usually repeats but may differ in a detail not shown here. Identical values can stand only once.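 The compound was tested at five concentrations on cells cultured in 96-well plates, with a 48-hour exposure period. The concentration for 50% growth inhibition is given as GI50. At the TGI there is no net growth.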

Assay in all cases: inhibition of tumour cell growth, NCI panel, 48 h
The test system of assay [1] is HOP-92 NSCLC.
Assay [2] deals with MCF7 breast.
Assay [3] has as its system HOP-62 NSCLC.
Assay [4] concerns HL-60(TB) leukemia.
For assay [5], the system named is LOX IMVI melanoma.
Assay [6] has as its system RXF 393 renal.
The test system of assay [7] is IGROV1 ovarian.
The test system of assay [8] is MDA-MB-435.

Regarding `CCCc1cc(=O)n2c(C(=O)Nc3ccccc3OC)c(C(=O)Nc3ccc(F)cc3)sc2n1`, the GI50 in assay [1] is 1.43 µM; in assay [2], 14.6 µM; in assay [3], 2.21 µM; in assay [4], 37.4 µM; in assay [5], 5.18 µM; in assay [6], 5.14 µM. Besides, the GI50 in assay [7] is 21.5 µM; in assay [8], 36.5 µM. Also, the TGI in assay [1] is 4.73 µM; in assay [2], 115 µM; in assay [3], 13.9 µM; in assay [4], > 160 µM; in assay [5], 38.1 µM; in assay [6], 12.1 µM. Moreover, the figures for the TGI in assay [7] and in assay [8] were 46.2 µM and > 160 µM, respectively.
Turning to `FC(F)(F)c1ccc(-c2cnc(Cl)nc2NCc2cc(C(F)(F)F)cc(C(F)(F)F)c2)cc1`, the GI50 in assay [1] is 1.37 µM; in assay [2], 2.65 µM; in assay [3], 3.86 µM; in assay [4], 2.6 µM; in assay [5] it was 2.74 µM; in assay [6], 3.15 µM. Moreover, the GI50 in assay [7] is 7.87 µM; in assay [8] it was 2.96 µM. The TGI was 4.3 µM in assay [1]; > 100 µM in assay [2]; > 100 µM in assay [3]; 6.73 µM in assay [4]; > 100 µM in assay [5]; > 100 µM in assay [6]. Besides, the TGI in assay [7] and in assay [8] was > 100 µM throughout.
`CSC1(SC2=NCCN2)SC2(NCCN2)S1`: the TGI in assay [1] is 28.4 µM; in assay [2], 12.8 µM; in assay [3], 34.4 µM; in assay [4], 55.9 µM; in assay [5], 25.7 µM; in assay [6], 20.4 µM. For the same molecule, the TGI in assay [7] amounted to 35.7 µM; in assay [8] it was 31.3 µM.
Consider `C/C=C/[C@@H]1OC(=O)C2=C[C@@H](O)[C@@H](/C=C/C)O[C@H]21`, for which the GI50 in assay [1] was 2.4 µM; in assay [2], 14.4 µM; in assay [3], 20 µM; in assay [4], 7.47 µM; in assay [5] it was 6.44 µM; in assay [6], 6.27 µM. The GI50 in assay [7] was 7.62 µM; in assay [8], 10.4 µM. For the same molecule, the TGI in assay [1] is 9.12 µM; in assay [2], > 100 µM; in assay [3], 36.2 µM; in assay [4], > 100 µM; in assay [5] it was 18.5 µM; in assay [6] it was 28.8 µM. Also, the TGI in assay [7] was > 56 µM; in assay [8], 25.5 µM.
Turning to `COc1cc(C2CC(c3ccc(N(C)C)cc3)=NN2C(C)=O)cc(OC)c1OC` (centres undefined), the GI50 in assay [1] was 29.6 µM; in assay [2], 0.577 µM; in assay [3], 2.16 µM; in assay [4], 7.94 µM; in assay [5], 2.28 µM; in assay [6], 2.73 µM. Further, the GI50 in assay [7] is 2.65 µM; in assay [8], 0.231 µM. Besides, the TGI in assay [1] is > 100 µM; in assay [2] it was > 100 µM; in assay [3], > 100 µM; in assay [4], > 25.1 µM; in assay [5], > 100 µM; in assay [6], > 22.9 µM. The TGI in assay [7] is > 100 µM; in assay [8], 1.18 µM.
Regarding `COc1cc2c3c(n(C)c(=O)c2cc1OC)-c1cc2c(cc1/C3=C\C(N)CN)OCO2` (centres undefined), the GI50 in assay [1] was 0.368 µM; in assay [2], 0.51 µM; in assay [3], 1.29 µM; in assay [4], 8.69 µM; in assay [5] it was 1.05 µM; in assay [6], 0.666 µM. Besides, the GI50 is 0.791 µM in assay [7] and 2.56 µM in assay [8]. The TGI in assay [1] was 6.8 µM; in assay [2], 7 µM; in assay [3], 8.91 µM; in assay [4], > 100 µM; in assay [5], 3.12 µM; in assay [6], 3.38 µM. Further, the TGI in assay [8] worked out at 17.3 µM.
Take `CCCOC(=O)CCn1c(SC)nc2[nH]cc(-c3ccccc3)c2c1=O`: the GI50 was 3.64 µM in assay [1]; 19.7 µM in assay [2]; 5.49 µM in assay [3]; 1.77 µM in assay [4]; 10.9 µM in assay [5]; 19.1 µM in assay [6]. Besides, the GI50 was 13.5 µM in assay [7] and 17.5 µM in assay [8]. Besides, the TGI is 40.4 µM in assay [1]; > 100 µM in assay [2]; 88.2 µM in assay [3]; 23.2 µM in assay [4]; 30.9 µM in assay [5]; 54.8 µM in assay [6]. Also, the TGI in assay [7] was 49.6 µM; in assay [8] it was 38.5 µM.
Consider `c1ccc(P(CCP(CCP(c2ccccc2)c2ccccc2)c2ccccc2)CCP(c2ccccc2)c2ccccc2)cc1` (centres undefined), for which the GI50 in assay [1] is > 10 µM and 2.25 µM; in assay [8] it was > 10 µM and 3.67 µM. Besides, the TGI in assay [1] was > 10 µM; in assay [2], 3.04 µM; in assay [3] it was > 10 µM; in assay [4], 3.69 µM; in assay [5], 2.84 µM; in assay [6] it was > 10 µM. Besides, the TGI in assay [7] and in assay [8] was > 10 µM throughout.
Turning to `CCOC(=O)c1nc(Nc2ccc(Cl)cc2)c2ccccc2n1`, the GI50 was 9.49 µM in assay [1]; 13.6 µM in assay [2]; 16.4 µM in assay [3]; > 50 µM in assay [4]; 9.92 µM in assay [5]; 7.35 µM in assay [6]. The GI50 in assay [7] is 10.7 µM; in assay [8], 6.85 µM. Also, the TGI in assay [1] was 26.8 µM; in assay [2] it was > 50 µM; in assay [3], > 50 µM; in assay [4], > 50 µM; in assay [5], 18.6 µM; in assay [6], 16.8 µM. Also, the figures for the TGI in assay [7] and in assay [8] were 26 µM and 13.3 µM, respectively.
Regarding `CCNCCNc1cc(C2CCCCC2)c(C#N)c2nc3ccccc3n12`, the GI50 in assay [1] was 2.28 µM; in assay [2] it was 1.53 µM; in assay [3] it was 2.28 µM; in assay [4], 1.46 µM; in assay [5] it was 0.568 µM; in assay [6], 1.7 µM. Besides, the results for the GI50 in assay [7] and in assay [8] were 2.38 µM and 1.73 µM, respectively. The TGI in assay [1] worked out at 4.08 µM; in assay [2] it was 3.27 µM; in assay [3], 6.93 µM; in assay [4], 3.49 µM; in assay [5] it was 2.08 µM; in assay [6] it was 3.19 µM. In addition, the figures for the TGI in assay [7] and in assay [8] were 7.04 µM and 3.4 µM, respectively.
With `CCN(CC)c1ccc(C(=N)c2ccc(N(C)C)cc2)cc1`, the GI50 in assay [1] was 1.05 µM; in assay [2], 0.197 µM; in assay [3], 1.55 µM; in assay [4] it was 0.886 µM; in assay [5], 1.21 µM; in assay [6], 1.18 µM. Besides, the results for the GI50 in assay [7] and in assay [8] were 0.949 µM and 0.0962 µM, respectively. Moreover, the TGI came out at 4.22 µM in assay [1]; 7.25 µM in assay [2]; 12.2 µM in assay [3]; 15.9 µM in assay [4]; 7.22 µM in assay [5]; 4.02 µM in assay [6]. Moreover, the TGI in assay [7] was 13 µM; in assay [8], 1.05 µM.
Regarding `C=C1CCC2C3(C)COC(c4ccccc4Br)OC3CCC2(C)C1C/C=C1/C(=O)OCC1OC(C)=O` (centres undefined), the GI50 was 1.36 µM in assay [1]; 0.62 µM in assay [2]; 1.94 µM in assay [3]; 0.708 µM in assay [4]; 0.422 µM in assay [5]; 1.54 µM in assay [6]. Moreover, the GI50 in assay [7] is 1.15 µM; in assay [8], 1.48 µM. The TGI in assay [1] is 3.02 µM; in assay [2], 2 µM; in assay [3] it was 3.46 µM; in assay [4] it was 2.98 µM; in assay [5], 0.826 µM; in assay [6], 2.96 µM. The TGI in assay [7] was determined as 2.48 µM; in assay [8] it was 3.5 µM.
Take `Nc1n[nH]c2ccc([C@@H]3Nc4ccc5[nH]ncc5c4[C@H]4C5C=CC(C5)[C@@H]34)cc12` (some centres undefined): the GI50 in assay [1] is 1.46 µM; in assay [2], 0.14 µM; in assay [3], 0.52 µM; in assay [4] it was 0.321 µM; in assay [5], 0.443 µM; in assay [6], 0.11 µM. For the same molecule, the GI50 in assay [7] was 0.497 µM; in assay [8], 0.0794 µM. The TGI in assay [1] amounted to 10.7 µM; in assay [2], 19 µM; in assay [3], 20.7 µM; in assay [4], 4.39 µM; in assay [5] it was 11.8 µM; in assay [6], 0.599 µM. Moreover, the figures for the TGI in assay [7] and in assay [8] were 24.9 µM and 0.444 µM, respectively.
Regarding `O=C(CN1CCN(c2ccccc2)CC1)N1CCN(c2nnc(-c3ccc(Cl)cc3)c(-c3ccc(Cl)cc3)n2)CC1`, the GI50 was 12.1 µM in assay [1]; 3.08 µM in assay [2]; 20.5 µM in assay [3]; 3.16 µM in assay [4]; 11.5 µM in assay [5]; 9.41 µM in assay [6]. For the same molecule, the GI50 in assay [7] was 6.5 µM; in assay [8] it was 13.7 µM. Moreover, the TGI in assay [1] came to 27.9 µM; in assay [2] it was 19.6 µM; in assay [3] it was 75.9 µM; in assay [4], 19.4 µM; in assay [5] it was 41.4 µM; in assay [6] it was 63.3 µM. Besides, the TGI in assay [7] was 40.8 µM; in assay [8], > 100 µM.
